Results reported in ChEMBL document CHEMBL1201862, “PubChem BioAssay data set” (2004).
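Each compound was tested at five concentrations against cells in 96-well plates for 48 hours. GI50 marks 50% less growth.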 Active and inactive are the calls of the source. Cut-off read from the data, not from the text of the source: active = GI50 up to about 1.1 µM and inactive = higher.

What was measured:
Test in all cases: NCI anticancer screen, dose series, 48 h
UO-31 = test system: UO-31
KM12 = test system: KM12
OVCAR-4 = test system: OVCAR-4
Malme-3M = test system: Malme-3M
M14 = test system: M14
NCI-H226 = test system: NCI-H226
SN12C = test system: SN12C
U-251 = test system: U-251
SF-295 = test system: SF-295
IGROV-1 = test system: IGROV-1
RPMI-8226 = test system: RPMI-8226
A549 = test system: A549
SK-MEL-28 = test system: SK-MEL-28
HCT-116 = test system: HCT-116
UACC-62 = test system: UACC-62
COLO 205 = test system: COLO 205
OVCAR-3 = test system: OVCAR-3
SF-539 = test system: SF-539
SNB-75 = test system: SNB-75

Measured: GI50

Nc1nnc(NC(=O)C2=NS(=O)(=O)c3cc(S(N)(=O)=O)c(Cl)cc3N2)[nH]1
inactive: UO-31 > 100 µM | KM12 > 100 µM | OVCAR-4 > 100 µM | Malme-3M > 100 µM | M14 > 100 µM | NCI-H226 > 100 µM | SN12C > 100 µM | U-251 > 100 µM | SF-295 > 100 µM | IGROV-1 > 100 µM | RPMI-8226 > 100 µM | A549 > 100 µM | SK-MEL-28 > 100 µM | HCT-116 > 100 µM | UACC-62 > 100 µM | COLO 205 > 100 µM | OVCAR-3 > 100 µM | SF-539 > 100 µM | SNB-75 > 100 µM

O=C(CCc1cc(-c2ccc(F)cc2)n[nH]1)N(Cc1ccccc1)Cc1ccccc1
inactive: UO-31 > 100 µM | KM12 > 100 µM | Malme-3M > 100 µM | M14 > 100 µM | NCI-H226 > 100 µM | SN12C > 100 µM | U-251 > 100 µM | SF-295 > 100 µM | IGROV-1 > 100 µM | RPMI-8226 > 100 µM | A549 > 100 µM | SK-MEL-28 > 100 µM | HCT-116 > 100 µM | UACC-62 > 100 µM | COLO 205 > 100 µM | OVCAR-3 > 100 µM | SF-539 > 100 µM | SNB-75 > 100 µM

COC(=O)C(=O)C(C(=O)C(=O)Nc1cc(Cl)c(Cl)cc1Cl)c1nc2ccc([N+](=O)[O-])cc2nc1O (stereo unspecified)
inactive: UO-31 51.4 µM | KM12 > 100 µM | OVCAR-4 > 100 µM | Malme-3M > 100 µM | M14 > 100 µM | NCI-H226 > 100 µM | SN12C > 100 µM | U-251 > 100 µM | SF-295 > 100 µM | IGROV-1 > 100 µM | RPMI-8226 > 100 µM | A549 > 100 µM | SK-MEL-28 > 100 µM | HCT-116 > 100 µM | UACC-62 > 100 µM | COLO 205 > 100 µM | SF-539 > 100 µM

NNC(=S)N/N=C/C(=C/Nc1ccccc1)[N+](=O)[O-]
inactive: OVCAR-4 > 100 µM | Malme-3M > 100 µM | M14 > 100 µM | NCI-H226 > 100 µM | SN12C > 100 µM | SF-295 > 100 µM | IGROV-1 > 100 µM | RPMI-8226 > 100 µM | A549 > 100 µM | SK-MEL-28 > 100 µM | HCT-116 > 100 µM | UACC-62 > 100 µM | COLO 205 > 100 µM | OVCAR-3 > 100 µM | SF-539 > 100 µM | SNB-75 > 100 µM

O=c1c2cc(Br)ccc2nc(-c2ccccc2)n1NCC1(O)OCC(O)C(O)C1O (stereo unspecified)
inactive: UO-31 > 100 µM | KM12 > 100 µM | OVCAR-4 61.8 µM | Malme-3M > 100 µM | M14 > 100 µM | NCI-H226 > 100 µM | SN12C > 100 µM | U-251 > 100 µM | SF-295 > 100 µM | RPMI-8226 > 100 µM | A549 > 100 µM | SK-MEL-28 > 100 µM | HCT-116 > 100 µM | UACC-62 > 100 µM | COLO 205 > 100 µM | OVCAR-3 81.8 µM | SF-539 > 100 µM | SNB-75 > 100 µM

COC1=C(C(=O)OC(C)(C)C)C23CCCCC2(C(C(=O)OC(C)(C)C)=C(OC)C3C(=O)OC(C)(C)C)C1C(=O)OC(C)(C)C (stereo unspecified)
inactive: UO-31 9.35 µM | KM12 34 µM | OVCAR-4 9.12 µM | Malme-3M 55.8 µM | M14 7.89 µM | NCI-H226 42.7 µM | SN12C 38.2 µM | U-251 49.9 µM | SF-295 4.78 µM | IGROV-1 49.2 µM | RPMI-8226 8.47 µM | A549 23 µM | HCT-116 14.2 µM | UACC-62 54.8 µM | COLO 205 10.4 µM | OVCAR-3 7.8 µM | SF-539 48.3 µM | SNB-75 84.5 µM

COc1c(C)c2c(c3c1c(=O)c1ccccc1n3C)C=CC(C)(C)O2
inactive: UO-31 26.5 µM | KM12 17.9 µM | Malme-3M 25.8 µM | M14 15.5 µM | NCI-H226 36.7 µM | SN12C 30.2 µM | U-251 21.8 µM | SF-295 17.9 µM | IGROV-1 30.3 µM | RPMI-8226 9.02 µM | A549 5.41 µM | SK-MEL-28 22 µM | HCT-116 18.5 µM | UACC-62 14.4 µM | COLO 205 30.7 µM | OVCAR-3 19.6 µM | SF-539 19.3 µM | SNB-75 20.4 µM

[N-]=[N+]=Nc1cc(=O)n(-c2ccccc2)c2ccccc12
inactive: UO-31 > 100 µM | KM12 > 100 µM | OVCAR-4 > 100 µM | Malme-3M > 100 µM | M14 > 100 µM | NCI-H226 > 100 µM | SN12C > 100 µM | U-251 > 100 µM | SF-295 > 100 µM | IGROV-1 > 100 µM | RPMI-8226 > 100 µM | A549 > 100 µM | SK-MEL-28 > 100 µM | HCT-116 > 100 µM | UACC-62 > 100 µM | COLO 205 > 100 µM | SF-539 > 100 µM | SNB-75 70.8 µM

N#Cc1ccccc1NC(=O)/C(=N\N)C(C(=O)c1ccncc1)C1OC(=O)c2ccccc21 (stereo unspecified)
inactive: UO-31 > 100 µM | KM12 > 100 µM | OVCAR-4 > 100 µM | Malme-3M > 100 µM | M14 > 100 µM | NCI-H226 > 100 µM | SN12C > 100 µM | U-251 > 100 µM | SF-295 > 100 µM | IGROV-1 > 100 µM | RPMI-8226 > 100 µM | A549 > 100 µM | SK-MEL-28 > 100 µM | HCT-116 > 100 µM | UACC-62 > 100 µM | COLO 205 > 100 µM | OVCAR-3 > 100 µM | SF-539 > 100 µM

N#C[C@](CO)(NC(=O)OCc1ccccc1)C(F)F
inactive: UO-31 > 100 µM | KM12 > 100 µM | OVCAR-4 > 100 µM | Malme-3M > 100 µM | M14 > 100 µM | NCI-H226 > 100 µM | U-251 > 100 µM | SF-295 > 100 µM | IGROV-1 > 100 µM | RPMI-8226 > 100 µM | A549 > 100 µM | SK-MEL-28 > 100 µM | HCT-116 > 100 µM | UACC-62 > 100 µM | COLO 205 > 100 µM | OVCAR-3 > 100 µM | SNB-75 > 100 µM

CCC(/C(=N\Nc1c(Cl)cc(Cl)cc1Cl)c1ccccc1)n1ccnc1C (stereo unspecified)
inactive: UO-31 5.97 µM | KM12 10.4 µM | OVCAR-4 10.5 µM | Malme-3M 11.7 µM | M14 13.3 µM | NCI-H226 15.2 µM | SN12C 11.9 µM | U-251 12.8 µM | SF-295 11.5 µM | IGROV-1 11 µM | RPMI-8226 3.99 µM | A549 13.8 µM | SK-MEL-28 14.7 µM | HCT-116 7.05 µM | UACC-62 17.5 µM | COLO 205 11.6 µM | OVCAR-3 5.82 µM | SF-539 16.2 µM | SNB-75 14.6 µM
